This passage reports IC50 and EC50 results from patent US12357603B2, “Acyl sulfonamides for treating cancer” (Bayer Aktiengesellschaft, priority 2019, dated 2025).

In experiment [1] the target is Recombinant human His-tagged Kat6a protein (amino acids 194-810) (Homo sapiens (Human), UniProt Q92794). As to the kind of experiment: Kat6a activity assay (TR-FRET, acetylation of biotinylated Histone-H4-derived peptide). The format is biochemical. The settings on record: 60 mins at 22° C., read-out: KAT6A-DPF/HAT domain IC50 [mol/l] (arithmetic mean). An outline of the steps: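 Sf9-expressed human His-Kat6a (aa 194-810) incubated 60 min at 22 °C with compounds (0.01-20 μM) in Tris pH 8 buffer containing 220 nM biotinylated H4 peptide (aa 1-24) and 600 nM acetyl-CoA. Acetyl-K8 detected by TR-FRET (665/620 nm ratio); IC50 by four-parameter fit versus DMSO controls.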
For orientation: Time-resolved FRET reads energy transfer from a long-lived donor to a nearby acceptor.

For experiment [2], the target named is Recombinant human GST-tagged Kat6b protein (431-end). As to the kind of experiment: Kat6b activity assay (TR-FRET, acetylation of biotinylated Histone-H4-derived peptide). Type of experiment: biochemical. The conditions noted are these: 30 mins at 22° C., read-out: KAT6B activity assay IC50 [mol/l] (arithmetic mean). On the procedure: Kat6b inhibitory activities of the compounds described in the present invention were quantified using a Fluorescence Resonance Energy Transfer (TR-FRET) assay which measures acetylation of a synthetic, biotinylated Histone-H4-derived peptide by the enzyme.
In this case 50 nl DMSO were used instead of compounds. […] IC50 values were determined by regression analysis based on a 4 parameter equation (minimum, maximum, ICM, Hill; Y=Max+(Min−Max)/(1+(X/ICso) Hill) using the Screener Software (Genedata).

Experiment [3] relates to ESR1 transcription (luciferase signal in MVLN cells). As to the kind of experiment: Repression of ESR1 transcription, luciferase reporter in MVLN cells. The format is cell-based. The conditions noted are these: Homo sapiens, MVLN, inhibition of luciferase signal in MVLN cells; arithmetic mean. The method in brief:
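MVLN cells (constitutive ER, stably carrying a Vitellogenin A2 hormone-responsive element–luciferase reporter) treated in duplicate; luciferase read after 24 h. Cell density checked by Alamar Blue fluorescence (530/590 nm) after 2 h to exclude cell-loss effects.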
In general terms: A reporter such as luciferase makes a cellular process visible.

Another experiment has as its system ZR-75-1 cells. As to the kind of experiment: Proliferation assay ZR-75-1 (Alamar Blue, 144 h). The format is cell-based. The conditions noted are these: Homo sapiens, ZR-75-1, 144 h, arithmetic mean, read-out: ZR75-1 proliferation assay, EC50 [M] (arithmetic mean). An outline of the steps: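 Cells seeded at 3000/well in RPMI 1640 with 2.5% FBS and treated 24 h later across 2.0×10E-5 to 2.0×10E-9 M (9 dilutions, 0.2% DMSO, triplicate). After 144 h at 37 °C, 5% CO2, viability read by Alamar Blue fluorescence at 590 nm following 2 h reagent incubation.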

In a further experiment the test system is MDA-MB-436 cells. Description: Proliferation assay MDA-MB-436, negative control cell line (Alamar Blue, 144 h). The format is cell-based. The settings on record: Homo sapiens, MDA-MB-436, 144 h, arithmetic mean. The method in brief: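 MDA-MB-436 cells (3000/well, DMEM/Ham's F12 with 2.5% FBS) treated 24 h after plating with compounds at 2.0×10E-5 to 2.0×10E-9 M (9 dilutions, 0.2% DMSO), triplicates, 144 h at 37 °C, 5% CO2. Viability by Alamar Blue, 2 h, fluorescence at 590 nm.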
For orientation: The colour change of resazurin is a common sign of viable cells or microbes.

Bounds are passed on as bounds.

Sequence of Recombinant human His-tagged Kat6a protein (amino acids 194-810) (Q92794 194-810): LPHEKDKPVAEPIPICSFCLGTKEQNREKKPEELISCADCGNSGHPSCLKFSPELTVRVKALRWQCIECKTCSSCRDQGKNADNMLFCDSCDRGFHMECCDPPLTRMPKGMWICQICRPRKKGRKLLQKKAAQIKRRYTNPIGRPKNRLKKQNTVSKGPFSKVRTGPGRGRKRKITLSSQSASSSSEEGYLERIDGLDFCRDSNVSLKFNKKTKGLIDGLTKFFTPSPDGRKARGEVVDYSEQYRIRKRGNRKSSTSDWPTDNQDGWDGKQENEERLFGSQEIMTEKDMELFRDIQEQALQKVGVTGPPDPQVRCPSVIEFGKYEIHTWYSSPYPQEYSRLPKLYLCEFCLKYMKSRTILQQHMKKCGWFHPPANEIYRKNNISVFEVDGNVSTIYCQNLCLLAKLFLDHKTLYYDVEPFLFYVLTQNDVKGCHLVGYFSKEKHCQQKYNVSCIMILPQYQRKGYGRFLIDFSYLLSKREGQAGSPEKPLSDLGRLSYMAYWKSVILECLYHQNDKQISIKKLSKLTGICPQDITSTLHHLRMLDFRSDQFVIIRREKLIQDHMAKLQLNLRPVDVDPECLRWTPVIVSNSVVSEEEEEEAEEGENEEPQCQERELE

`CN(CC1CC1)c1ccc2cc(C(=O)NS(=O)(=O)c3ccccc3-c3ccccc3)oc2c1` [Example 40, N-([1,1′-Biphenyl]-2-sulfonyl)-6-[(cyclopropylmethyl)(methyl)amino]-1-benzofuran-2-carboxamide]: the IC50 in experiment [1] was 1150 nM; in experiment [2], 1420 nM; in experiment [3] it was more than 20000 nM. In addition, the EC50 was more than 2e-05 M in the experiment with ZR-75-1 cells and more than 20000 nM with MDA-MB-436 cells.

Turning to `CNc1ccc2cc(C(=O)NS(=O)(=O)c3ccccc3-c3ccccc3)oc2c1` [Example 11, 6-(Methylamino)-N-(2-phenylphenyl)sulfonyl-benzofuran-2-carboxamide], the values for the IC50 in experiment [1], in experiment [2] and in experiment [3] were 123 nM, 205 nM and 1930 nM, respectively. The EC50 is 2.84e-07 M with ZR-75-1 cells and more than 20000 nM in the experiment on MDA-MB-436 cells.

For the compound `Cc1ccc2cccc(S(=O)(=O)NC(=O)c3cc4ccc(N(C)C)cc4o3)c2n1` [Example 225], the IC50 in experiment [1] is 22.7 nM; in experiment [2], 25.8 nM; in experiment [3], 36.2 nM. In addition, the EC50 with ZR-75-1 cells is 7.21e-08 M; in the experiment on MDA-MB-436 cells, more than 20000 nM.

As to `CN(C)c1ccc2cc(C(=O)N[S@SP1](=O)(=O)c3cccc4ccccc34)oc2c1` [Example 20, 6-(Dimethylamino)-N-(naphthalene-1-sulfonyl)-1-benzofuran-2-carboxamide], the figures for the IC50 in experiment [1], in experiment [2] and in experiment [3] were 104 nM, 88.4 nM and 343 nM, respectively. The EC50 in the experiment on ZR-75-1 cells is 2.5e-07 M; in the experiment with MDA-MB-436 cells, more than 20000 nM.

For the compound `CN(C)c1ccc2cc(C(=O)NS(=O)(=O)c3ccccc3OCCF)oc2c1` [Example 72, 6-(Dimethylamino)-N-[2-(2-fluoroethoxy)benzene-1-sulfonyl]-1-benzofuran-2-carboxamide], the IC50 in experiment [1] stood at 96.7 nM; in experiment [2], 190 nM; in experiment [3], 76.5 nM. The EC50 in the experiment on ZR-75-1 cells was 1.31e-07 M; with MDA-MB-436 cells, more than 20000 nM.

As for `CN(C)c1cc(F)c2cc(C(=O)NS(=O)(=O)c3ccccc3OC3CC3)oc2c1` [Example 110, N-[2-(Cyclopropyloxy)benzene-1-sulfonyl]-6-(dimethylamino)-4-fluoro-1-benzofuran-2-carboxamide], the results for the IC50 in experiment [1], in experiment [2] and in experiment [3] were 7.48 nM, 3.82 nM and 12.4 nM, respectively. In addition, the EC50 in the experiment on ZR-75-1 cells is 7.12e-08 M; with MDA-MB-436 cells, more than 20000 nM.

In the case of `CN(C)c1ccc2cc(C(=O)NS(=O)(=O)c3ccccc3OC(F)F)oc2c1` [Example 79, N-[2-(Difluoromethoxy)benzene-1-sulfonyl]-6-(dimethylamino)-1-benzofuran-2-carboxamide], the results for the IC50 in experiment [1], in experiment [2] and in experiment [3] were 188 nM, 200 nM and 164 nM, respectively. Besides, the figures for the EC50 with ZR-75-1 cells and with MDA-MB-436 cells were 2.22e-07 M and more than 20000 nM, respectively.

For `CN(C)c1ccc2cc(C(=O)NS(=O)(=O)c3ccccc3-c3cccc(Cl)c3)sc2c1` [Example 49, N-(3′-Chloro[1,1′-biphenyl]-2-sulfonyl)-6-(dimethylamino)-1-benzothiophene-2-carboxamide], the IC50 was 310 nM in experiment [1], 528 nM in experiment [2] and 2470 nM in experiment [3]. In addition, the EC50 in the experiment with ZR-75-1 cells is 5.17e-06 M; with MDA-MB-436 cells, more than 20000 nM.

As for `CN(C)c1ccc2cc(C(=O)NS(=O)(=O)c3ccccc3-c3cccc(Cl)c3)oc2c1` [Example 16, N-(3′-Chloro[1,1′-biphenyl]-2-sulfonyl)-6-(dimethylamino)-1-benzofuran-2-carboxamide], the IC50 amounted to 66.3 nM in experiment [1], 50.5 nM in experiment [2] and 126 nM in experiment [3]. Further, the EC50 in the experiment on ZR-75-1 cells was 1.55e-07 M; in the experiment with MDA-MB-436 cells, more than 20000 nM.

Regarding `CCOc1cccc(F)c1S(=O)(=O)NC(=O)c1cc2ccc(N(C)C)cc2o1` [Example 123, 6-(Dimethylamino)-N-(2-ethoxy-6-fluorobenzene-1-sulfonyl)-1-benzofuran-2-carboxamide], the values for the IC50 in experiment [1], in experiment [2] and in experiment [3] were 275 nM, 257 nM and 179 nM, respectively. Further, the EC50 is 1.19e-07 M in the experiment on ZR-75-1 cells and more than 20000 nM with MDA-MB-436 cells.

For the compound `Nc1ccc2cc(C(=O)NS(=O)(=O)c3ccccc3-c3ccccc3)oc2c1` [Example 42, 6-Amino-N-([1,1′-biphenyl]-2-sulfonyl)-1-benzofuran-2-carboxamide], the results for the IC50 in experiment [1], in experiment [2] and in experiment [3] were 1070 nM, 3590 nM and more than 20000 nM, respectively. The EC50 in the experiment with ZR-75-1 cells is more than 2e-05 M; in the experiment with MDA-MB-436 cells, more than 20000 nM.

On to `CN(C)c1ccc2cc(C(=O)NS(=O)(=O)C3CCOCC3)oc2c1` [Example 28, 6-(Dimethylamino)-N-(oxane-4-sulfonyl)-1-benzofuran-2-carboxamide], for which the IC50 in experiment [1] was 5440 nM; in experiment [2], 2680 nM; in experiment [3], more than 20000 nM. Also, the values for the EC50 in the experiment with ZR-75-1 cells and in the experiment on MDA-MB-436 cells were 4.73e-06 M and more than 20000 nM, respectively.

As to `Cc1ccc(S(=O)(=O)NC(=O)c2cc3ccc(N(C)C)cc3o2)cc1` [Example 26, 6-(Dimethylamino)-N-(4-methylbenzene-1-sulfonyl)-1-benzofuran-2-carboxamide], the IC50 was 406 nM in experiment [1], 778 nM in experiment [2] and 899 nM in experiment [3]. Further, the EC50 with ZR-75-1 cells is 3.89e-07 M; in the experiment with MDA-MB-436 cells, more than 20000 nM.

Take `Cc1ccc(S(=O)(=O)NC(=O)c2cc3ccc(N(C)C)cc3o2)c(-c2ccccc2)c1` [Example 24, 6-(Dimethylamino)-N-(5-methyl[1,1′-biphenyl]-2-sulfonyl)-1-benzofuran-2-carboxamide]: the figures for the IC50 in experiment [1], in experiment [2] and in experiment [3] were 31 nM, 49 nM and 181 nM, respectively. In addition, the values for the EC50 in the experiment with ZR-75-1 cells and in the experiment on MDA-MB-436 cells were 1.33e-07 M and more than 20000 nM, respectively.

On to `CCOc1cccc(Br)c1S(=O)(=O)NC(=O)c1cc2ccc(N(C)C)cc2o1` [Example 121, N-(2-Bromo-6-ethoxybenzene-1-sulfonyl)-6-(dimethylamino)-1-benzofuran-2-carboxamide], for which the IC50 in experiment [1] came out at 179 nM; in experiment [2], 227 nM; in experiment [3], 275 nM. The EC50 was 3.56e-07 M with ZR-75-1 cells and more than 20000 nM in the experiment on MDA-MB-436 cells.

Consider `CCOc1cccc(-c2cccc(Cl)c2)c1S(=O)(=O)NC(=O)c1cc2ccc(N(C)C)cc2o1` [Example 25, N-(3′-Chloro-3-ethoxy[1,1′-biphenyl]-2-sulfonyl)-6-(dimethylamino)-1-benzofuran-2-carboxamide], for which the results for the IC50 in experiment [1], in experiment [2] and in experiment [3] were 31.1 nM, 50.6 nM and 139 nM, respectively. In addition, the EC50 with ZR-75-1 cells was determined as 1.5e-07 M; in the experiment with MDA-MB-436 cells, 18000 nM.

As to `CCOc1ccc(C(C)C)cc1S(=O)(=O)NC(=O)c1cc2ccc(N(C)C)cc2o1` [Example 129, 6-(Dimethylamino)-N-[2-ethoxy-5-(propan-2-yl)benzene-1-sulfonyl]-1-benzofuran-2-carboxamide], the IC50 in experiment [1] is 13.5 nM; in experiment [2], 16.8 nM; in experiment [3], 28.6 nM. The values for the EC50 in the experiment with ZR-75-1 cells and in the experiment with MDA-MB-436 cells were 6.17e-07 M and more than 20000 nM, respectively.

With `CN(C)c1ccc2cc(C(=O)NS(=O)(=O)c3ccccc3C(=O)O)oc2c1` [Example 36, 2-{[6-(Dimethylamino)-1-benzofuran-2-carbonyl]sulfamoyl}benzoic acid], the IC50 is 227 nM in experiment [1], 169 nM in experiment [2] and 4030 nM in experiment [3]. The EC50 in the experiment with ZR-75-1 cells is 1.04e-05 M; in the experiment on MDA-MB-436 cells it was more than 20000 nM.

On to `CN(C)c1ccc2cc(C(=O)NS(=O)(=O)c3cc(C#N)ccn3)oc2c1` [Example 29, N-(4-Cyanopyridine-2-sulfonyl)-6-(dimethylamino)-1-benzofuran-2-carboxamide], for which the IC50 was 6240 nM in experiment [1], 5920 nM in experiment [2] and more than 20000 nM in experiment [3]. The EC50 in the experiment on ZR-75-1 cells was 1.88e-05 M; with MDA-MB-436 cells it was more than 20000 nM.

Take `Cc1ccccc1S(=O)(=O)NC(=O)c1cc2ccc(N(C)C)cc2o1` [Example 32, 6-(Dimethylamino)-N-(2-methylbenzene-1-sulfonyl)-1-benzofuran-2-carboxamide]: the figures for the IC50 in experiment [1] and in experiment [2] were 224 nM and 423 nM, respectively. In addition, the EC50 with ZR-75-1 cells is 3.78e-07 M; in the experiment on MDA-MB-436 cells, more than 20000 nM.
